From the OligoGym collection
Oligonucleotides are given in HELM: sugar(base)linkage, 5' to 3'; d 2'-deoxyribose, r ribose, m 2'-O-methylribose, p phosphate. ss, as = sense and antisense strand
Note: test concentration or dose not given here.

Each substance was assayed against UBE2D3 (assay: reporter assay of Huesken 2005). Conditions: siRNA.
For “RNA1{r(U)p.r(A)p.r(U)p.r(G)p.r(U)p.r(U)p.r(U)p.r(C)p.r(A)p.r(U)p.r(U)p.r(G)p.r(G)p.r(C)p.r(A)p.r(A)p.r(G)p.r(C)p.r(C)p.d(T)p.d(T)}|RNA2{r(G)p.r(G)p.r(C)p.r(U)p.r(U)p.r(G)p.r(C)p.r(C)p.r(A)p.r(A)p.r(U)p.r(G)p.r(A)p.r(A)p.r(A)p.r(C)p.r(A)p.r(U)p.r(A)p.d(T)p.d(C)}$$$RNA1{StrandType:ss}|RNA2{StrandType:as}$”, the normalised inhibition (eCFP-eYFP dual reporter) was 44.7%. “RNA1{r(U)p.r(C)p.r(A)p.r(C)p.r(U)p.r(G)p.r(C)p.r(U)p.r(A)p.r(U)p.r(G)p.r(U)p.r(G)p.r(A)p.r(U)p.r(C)p.r(C)p.r(A)p.r(A)p.d(T)p.d(T)}|RNA2{r(U)p.r(U)p.r(G)p.r(G)p.r(A)p.r(U)p.r(C)p.r(A)p.r(C)p.r(A)p.r(U)p.r(A)p.r(G)p.r(C)p.r(A)p.r(G)p.r(U)p.r(G)p.r(A)p.d(A)p.d(C)}$$$RNA1{StrandType:ss}|RNA2{StrandType:as}$” was tested, and the normalised inhibition (eCFP-eYFP dual reporter) was 95.2%. “RNA1{r(U)p.r(C)p.r(C)p.r(A)p.r(U)p.r(U)p.r(U)p.r(G)p.r(U)p.r(U)p.r(C)p.r(A)p.r(C)p.r(U)p.r(G)p.r(C)p.r(U)p.r(A)p.r(U)p.d(T)p.d(T)}|RNA2{r(A)p.r(U)p.r(A)p.r(G)p.r(C)p.r(A)p.r(G)p.r(U)p.r(G)p.r(A)p.r(A)p.r(C)p.r(A)p.r(A)p.r(A)p.r(U)p.r(G)p.r(G)p.r(A)p.d(T)p.d(A)}$$$RNA1{StrandType:ss}|RNA2{StrandType:as}$” gave a normalised inhibition (eCFP-eYFP dual reporter) of 98.4%. Work on “RNA1{r(U)p.r(C)p.r(U)p.r(A)p.r(A)p.r(A)p.r(G)p.r(U)p.r(U)p.r(C)p.r(U)p.r(U)p.r(U)p.r(U)p.r(A)p.r(U)p.r(C)p.r(C)p.r(A)p.d(T)p.d(T)}|RNA2{r(U)p.r(G)p.r(G)p.r(A)p.r(U)p.r(A)p.r(A)p.r(A)p.r(A)p.r(G)p.r(A)p.r(A)p.r(C)p.r(U)p.r(U)p.r(U)p.r(A)p.r(G)p.r(A)p.d(A)p.d(A)}$$$RNA1{StrandType:ss}|RNA2{StrandType:as}$” yielded a normalised inhibition (eCFP-eYFP dual reporter) of 64.2%. “RNA1{r(U)p.r(C)p.r(U)p.r(A)p.r(A)p.r(G)p.r(A)p.r(U)p.r(C)p.r(A)p.r(C)p.r(A)p.r(G)p.r(U)p.r(G)p.r(G)p.r(U)p.r(C)p.r(G)p.d(T)p.d(T)}|RNA2{r(C)p.r(G)p.r(A)p.r(C)p.r(C)p.r(A)p.r(C)p.r(U)p.r(G)p.r(U)p.r(G)p.r(A)p.r(U)p.r(C)p.r(U)p.r(U)p.r(A)p.r(G)p.r(A)p.d(A)p.d(T)}$$$RNA1{StrandType:ss}|RNA2{StrandType:as}$” showed a normalised inhibition (eCFP-eYFP dual reporter) of 43.3%. “RNA1{r(U)p.r(C)p.r(U)p.r(C)p.r(G)p.r(A)p.r(U)p.r(A)p.r(U)p.r(U)p.r(C)p.r(U)p.r(A)p.r(A)p.r(G)p.r(A)p.r(U)p.r(C)p.r(A)p.d(T)p.d(T)}|RNA2{r(U)p.r(G)p.r(A)p.r(U)p.r(C)p.r(U)p.r(U)p.r(A)p.r(G)p.r(A)p.r(A)p.r(U)p.r(A)p.r(U)p.r(C)p.r(G)p.r(A)p.r(G)p.r(A)p.d(C)p.d(A)}$$$RNA1{StrandType:ss}|RNA2{StrandType:as}$” gave a normalised inhibition (eCFP-eYFP dual reporter) of 98.1%. “RNA1{r(U)p.r(C)p.r(U)p.r(G)p.r(C)p.r(A)p.r(G)p.r(G)p.r(U)p.r(C)p.r(C)p.r(A)p.r(G)p.r(U)p.r(U)p.r(G)p.r(G)p.r(G)p.r(G)p.d(T)p.d(T)}|RNA2{r(C)p.r(C)p.r(C)p.r(C)p.r(A)p.r(A)p.r(C)p.r(U)p.r(G)p.r(G)p.r(A)p.r(C)p.r(C)p.r(U)p.r(G)p.r(C)p.r(A)p.r(G)p.r(A)p.d(A)p.d(C)}$$$RNA1{StrandType:ss}|RNA2{StrandType:as}$” gave a normalised inhibition (eCFP-eYFP dual reporter) of 32.9%. “RNA1{r(U)p.r(G)p.r(A)p.r(C)p.r(A)p.r(A)p.r(U)p.r(U)p.r(C)p.r(A)p.r(U)p.r(U)p.r(U)p.r(U)p.r(C)p.r(C)p.r(U)p.r(A)p.r(C)p.d(T)p.d(T)}|RNA2{r(G)p.r(U)p.r(A)p.r(G)p.r(G)p.r(A)p.r(A)p.r(A)p.r(A)p.r(U)p.r(G)p.r(A)p.r(A)p.r(U)p.r(U)p.r(G)p.r(U)p.r(C)p.r(A)p.d(A)p.d(A)}$$$RNA1{StrandType:ss}|RNA2{StrandType:as}$” was tested, and the normalised inhibition (eCFP-eYFP dual reporter) was 55.4%.
